Experiments:
[1] = target: Phaeobacter sp. MED193 UgpB (MED193_07903) (Phaeobacter sp. MED193 (Roseobacter sp. MED193), UniProt Z9VP90JAR2); test: MST binding affinity assay, purified recombinant UgpB; conditions: 22 °C, 20 mM HEPES pH 7.4, 100 mM NaCl, recombinant UgpB of Phaeobacter sp. MED193
Experimental: (§1) The binding affinity of the purified proteins to G1P and other structurally related chemicals was measured using a Monolith NT.115 (NanoTemper Technologies, Munich, Germany). Proteins (160 nM) were labeled in assay buffer (PBS containing 0.05% (v/v) Tween-20) using the Protein Labelling Kit RED-Tris-NTA (NanoTemper Technologies). For binding assays, the buffer was replaced by 20 mM HEPES pH 7.4, 100 mM NaCl, 0.05% (v/v) Tween-20. Each chemical was prepared by serial dilution in the same assay buffer and mixed with the same volume of labeled protein (at a final concentration of 80 nM). The mixture was then loaded onto Monolith™ NT.115 Series capillaries (NanoTemper Technologies, Germany) and thermophoresis was measured at 22 °C using 60% excitation power and medium MST power. Data were analyzed using MO. Affinity Analysis v2.3 software (NanoTemper Technologies).
(§2) The full-length codon optimized GpxB (MED193_19449) of Phaeobacter sp. MED193 (WP_009811375.1), and four GpxB homologs (Marinobacter sp. DSM11874, MBB6025290.1; S. pseudonitzschiae DSM26824, WP_037914517.1; Sulfitobacter sp. EE-36, WP_005852758.1; S. geojensis sp. EhN01, WP_064222091.1) were chemically synthesized by Beijing Tsingke Biotech Co., Ltd. (China), and subcloned into pET-22b (Novagen, America) with a C-terminal His-tag. An N-terminal signal peptide truncated [residues 1−22 predicted by SignalP 5.0 Server ([36])] […]

[2] = target: GpxB from Sulfitobacter sp. EE-36; test: MST binding affinity assay, purified GpxB from Sulfitobacter sp. EE-36; conditions: GpxB of Sulfitobacter sp. EE-36
Experimental: as §1, §2

[3] = tested on: Phaeobacter sp. MED193; test: Growth on substrate as the sole C source, wild type; type: cell-based; conditions: defined artificial seawater medium, 5 mM substrate
Experimental: (§3) Phaeobacter sp. MED193 and its mutant strains were routinely maintained on 1.5% (w/v) Difco marine broth 2216 agar with antibiotics as appropriate. To test the growth of Phaeobacter sp. MED193 on G1P/G3P, cells were first cultivated in 5 mL marine broth medium overnight at 30 °C with shaking at 150 rpm. A 1% (v/v) inoculum was then transferred to defined artificial seawater medium supplemented with 50 µM phosphate ([6]). After 24 h growth, 12.5 mL cultures were collected by centrifugation and inoculated into 100 mL artificial seawater medium. Subsequently, either G1P or G3P (purchased from Sigma-Aldrich, St. Louis, USA) was added to a final concentration of 5 mM as the sole C source. Cells (40 mL) were harvested after 48 h and used for proteomics.

[4] = target: GpxB from Sulfitobacter geojensis EhN01; test: MST binding affinity assay, purified GpxB from Sulfitobacter geojensis EhN01; conditions: GpxB of Sulfitobacter geojensis EhN01
Experimental: as §1, §2

[5] = target: GpxB^DSM11874 (GpxB homolog from Marinobacter sp. DSM11874) (Marinobacter sp. DSM 11874, UniProt Z9YUV0DEE1); test: MST binding affinity assay, purified GpxB^DSM11874; conditions: 22 °C, GpxB^DSM11874 of Marinobacter sp. DSM11874
Chain of GpxB^DSM11874 (GpxB homolog from Marinobacter sp. DSM11874) (Z9YUV0DEE1 21-315 limits assumed): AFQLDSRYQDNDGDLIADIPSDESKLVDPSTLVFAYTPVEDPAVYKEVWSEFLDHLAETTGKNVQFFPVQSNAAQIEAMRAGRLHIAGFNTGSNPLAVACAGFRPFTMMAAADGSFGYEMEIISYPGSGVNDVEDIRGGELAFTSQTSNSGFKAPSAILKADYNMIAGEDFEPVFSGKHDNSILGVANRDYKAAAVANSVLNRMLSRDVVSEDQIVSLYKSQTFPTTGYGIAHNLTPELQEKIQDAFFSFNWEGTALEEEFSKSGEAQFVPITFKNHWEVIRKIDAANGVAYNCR
Experimental: as §1, §2

[6] = target: Phaeobacter sp. MED193 GpxB (MED193_19449) (Roseobacter sp. MED193, UniProt A3X5C8); test: Microscale thermophoresis (MST) binding affinity assay, purified recombinant GpxB; conditions: 22 °C, 20 mM HEPES pH 7.4, 100 mM NaCl, recombinant GpxB of Phaeobacter sp. MED193
Chain of Phaeobacter sp. MED193 GpxB (MED193_19449) (A3X5C8 1-326 limits assumed): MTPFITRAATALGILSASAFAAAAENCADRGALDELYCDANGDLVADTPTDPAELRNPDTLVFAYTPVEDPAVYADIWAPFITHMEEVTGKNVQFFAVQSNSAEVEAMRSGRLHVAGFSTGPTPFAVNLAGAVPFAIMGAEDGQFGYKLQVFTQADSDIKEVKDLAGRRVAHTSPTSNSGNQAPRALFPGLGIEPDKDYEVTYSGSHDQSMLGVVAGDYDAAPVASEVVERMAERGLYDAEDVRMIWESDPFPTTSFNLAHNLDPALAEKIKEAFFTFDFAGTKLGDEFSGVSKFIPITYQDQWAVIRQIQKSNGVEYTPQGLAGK
Experimental: as §1, §2

[7] = target: GpxB from Sulfitobacter pseudonitzschiae DSM26824; test: MST binding affinity assay, purified GpxB from Sulfitobacter pseudonitzschiae DSM26824; conditions: GpxB of Sulfitobacter pseudonitzschiae DSM26824
Experimental: as §1, §2

[8] = tested on: Phaeobacter sp. MED193 ∆ugpB∆gpxB double mutant; test: Growth on substrate as the sole carbon source, ∆ugpB∆gpxB double mutant; type: cell-based; conditions: 5 mM substrate
Experimental: as §3
The gpxBugpB double mutant was generated using a conjugation protocol as described previously ([35]). First, two homologous regions of an upstream and a downstream fragment flanking the gpxB gene were cloned into suicide plasmid pK18mobsacB, together with a spectinomycin (Spec) resistance cassette which was inserted in between the upstream and downstream fragments. The resulting plasmid was then mobilized into Phaeobacter sp. MED193 using E. coli S17.1 lambda pir and transconjugants selected on marine broth MB agar containing Spec (200 µg mL^−1). […] The same protocol was repeated to generate the gpxBugpB double mutant in the gpxB single mutant background, except that a Gentamycin (Gm) resistant cassette was inserted in between the upstream and downstream fragments of ugpB into pK18mobsacB. All primers, plasmids, and bacterial strains used are listed in SI Appendix, Table S6.

[9] = tested on: GpxB^DSM11874 alanine mutants (Tyr138, His199, Thr247, Arg223); test: MST binding affinity assay of site-directed alanine mutants of GpxB^DSM11874; design: species or system Marinobacter sp. DSM11874; conditions: alanine mutants of Tyr138, His199, Thr247, Arg223 versus wild-type GpxB^DSM11874
Experimental: as §1, §2

Chain of Phaeobacter sp. MED193 UgpB (MED193_07903) (Z9VP90JAR2 43-453 limits assumed): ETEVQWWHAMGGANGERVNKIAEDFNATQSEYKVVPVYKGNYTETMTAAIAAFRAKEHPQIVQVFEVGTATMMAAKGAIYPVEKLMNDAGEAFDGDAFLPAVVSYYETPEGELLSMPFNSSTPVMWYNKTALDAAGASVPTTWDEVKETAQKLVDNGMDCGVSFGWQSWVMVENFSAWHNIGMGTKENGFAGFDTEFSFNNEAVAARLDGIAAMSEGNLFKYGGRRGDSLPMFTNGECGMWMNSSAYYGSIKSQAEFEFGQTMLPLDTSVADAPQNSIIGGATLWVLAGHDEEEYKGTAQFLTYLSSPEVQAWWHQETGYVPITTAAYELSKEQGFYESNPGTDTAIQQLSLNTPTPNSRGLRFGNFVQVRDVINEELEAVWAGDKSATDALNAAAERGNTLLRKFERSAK

| Structure (SMILES) | Kd [1] [nM] | binding affinity [2] | growth on the substance as the sole C source [3] | binding affinity [4] | Kd [5] [nM] | Kd [6] [nM] | binding affinity [7] | growth on the substance as the sole carbon source [8] | reduction in binding affinity of alanine mutants [9] |
| --- | --- | --- | --- | --- | --- | --- | --- | --- | --- |
| O=P(O)(O)OC[C@H](O)CO [G3P, sn-glycerol-3-phosphate] | 800 ± 260 | low-µM | grows | low-µM | 1060 ± 150 | 1020 ± 140 | low-µM | unable to grow | – |
| OCC(O)CO [glycerol] | – | – | grows | – | – | – | – | unaffected | – |
| O=P(O)(O)OC[C@@H](O)CO [G1P, sn-glycerol-1-phosphate] | 2360 ± 350 | low-µM | grows | low-µM | 1720 ± 280 | 2480 ± 140 | low-µM | unable to grow | 10- to 100 fold |
